The source of these data is PubChem BioAssay (NCI).

Test systems include MOLT-4 leukemia; NCI-H460 lung; TK-10 renal; 786-0 renal; PC-3 prostate; U251 CNS; CAKI-1 renal; OVCAR-3 ovarian; KM12 colon; RXF 393 renal.
Holding throughout (assay): NCI tumour cell line growth inhibition, 48 h

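Interpolation was linear, between the two tested concentrations surrounding the appropriate level; five concentrations were tested over 48 hours in 96-well plates. GI50 = concentration required for 50% inhibition of growth. TGI is the concentration that stops growth completely.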 Bounds are passed on as bounds.

With `CCC[CH2][Sn]([CH2]CCC)([O]C(=O)c1cccc(F)c1F)[O][Sn]([CH2]CCC)([CH2]CCC)[O]C(=O)c1cccc(F)c1F`, the GI50 in the assay with MOLT-4 leukemia was 0.084 µM; in the assay on NCI-H460 lung, 1.3 µM; with TK-10 renal, 0.206 µM; in the assay on 786-0 renal, 0.154 µM; with PC-3 prostate it was 0.59 µM; in the assay with U251 CNS, 0.147 µM. Moreover, the GI50 in the assay on CAKI-1 renal is 0.116 µM; in the assay on OVCAR-3 ovarian, 0.493 µM; with KM12 colon, 0.857 µM; in the assay on RXF 393 renal it was 0.0216 µM. For the same molecule, the TGI with MOLT-4 leukemia was found to be 0.821 µM; in the assay with NCI-H460 lung, 2.62 µM; in the assay with TK-10 renal, 0.562 µM; in the assay on 786-0 renal, 0.344 µM; with PC-3 prostate, 1.86 µM; in the assay on U251 CNS, 0.449 µM. Besides, the TGI with CAKI-1 renal worked out at 0.363 µM; with OVCAR-3 ovarian it was 1.64 µM; in the assay on KM12 colon, 2.22 µM; in the assay with RXF 393 renal, 0.105 µM.
As to `N#C/C(=C\c1ccc(Br)cc1)n1nnc2cc(F)c(F)cc21`, the GI50 in the assay with MOLT-4 leukemia was 2.7 µM; with NCI-H460 lung, 1.96 µM; in the assay with TK-10 renal, 2.16 µM; with 786-0 renal, 1.67 µM; in the assay with PC-3 prostate, 1.8 µM; in the assay on U251 CNS it was 1.6 µM. The GI50 in the assay on CAKI-1 renal was 1.37 µM; in the assay with OVCAR-3 ovarian it was 1.89 µM; with KM12 colon, 1.78 µM; in the assay with RXF 393 renal, 1.37 µM. Further, the TGI in the assay on MOLT-4 leukemia came to 8.65 µM; in the assay on NCI-H460 lung, 3.98 µM; in the assay on TK-10 renal, 5.56 µM; in the assay with 786-0 renal, 3.18 µM; in the assay with PC-3 prostate it was 3.81 µM; in the assay on U251 CNS it was 3.06 µM. Moreover, the TGI amounted to 2.79 µM in the assay on CAKI-1 renal, 3.76 µM in the assay on OVCAR-3 ovarian, 3.74 µM in the assay with KM12 colon and 2.77 µM in the assay on RXF 393 renal.
For the molecule `C/C=C/C/C=C/CCC(=O)C1OC1C(N)=O` (stereo not drawn), the TGI in the assay on MOLT-4 leukemia came out at 51.7 µM; in the assay on NCI-H460 lung, 25.4 µM; in the assay on TK-10 renal, 25.9 µM; in the assay on 786-0 renal, 25.8 µM; in the assay with PC-3 prostate, 28.7 µM; in the assay with U251 CNS it was 30.7 µM. Besides, the TGI in the assay with CAKI-1 renal amounted to 29.8 µM; in the assay with OVCAR-3 ovarian it was 32.8 µM; in the assay on KM12 colon, 29.5 µM; in the assay with RXF 393 renal, 21.7 µM.
In the case of `C[C@]12CC[C@H]3[C@@H](CC=C4C[C@@H](O)CC[C@@]43C)[C@@H]1C/C(=C\c1cccc(OCCCn3ccnc3)c1)[C@@H]2O`, the GI50 in the assay with MOLT-4 leukemia is 6.55 µM; in the assay with NCI-H460 lung, 13.8 µM; in the assay on TK-10 renal, 16.6 µM; in the assay on 786-0 renal, 10.5 µM; in the assay on PC-3 prostate, 9.48 µM; in the assay with U251 CNS, 11.8 µM. In addition, the GI50 with CAKI-1 renal is 13.8 µM; with KM12 colon, 11.9 µM; in the assay on RXF 393 renal it was 4.7 µM. Also, the TGI came out at 32.2 µM with MOLT-4 leukemia; 31.8 µM with NCI-H460 lung; 31.3 µM with TK-10 renal; 35 µM with 786-0 renal; 56.6 µM in the assay on PC-3 prostate; 24.7 µM with U251 CNS. Moreover, the TGI in the assay on CAKI-1 renal turned out to be 34.5 µM; with OVCAR-3 ovarian, 29.9 µM; in the assay on KM12 colon, 28.7 µM; with RXF 393 renal, 20.8 µM.
For `COc1cc2c(cc1OCCCCCN1CCN(c3cc(=O)oc4c(C)c(OC)ccc34)CC1)N=C[C@@H]1CCCN1C2=O`, the GI50 is less than 0.01 µM in the assay on MOLT-4 leukemia; 0.0197 µM in the assay with NCI-H460 lung; less than 0.0129 µM in the assay on TK-10 renal; less than 0.01 µM in the assay with 786-0 renal; less than 0.01 µM in the assay on PC-3 prostate; less than 0.01 µM in the assay with U251 CNS. Besides, the GI50 is 0.083 µM in the assay on CAKI-1 renal, less than 0.01 µM in the assay on OVCAR-3 ovarian, less than 0.0169 µM with KM12 colon and less than 0.01 µM in the assay with RXF 393 renal. Also, the TGI was found to be 0.0106 µM with MOLT-4 leukemia; 1.71 µM in the assay on NCI-H460 lung; 13.3 µM in the assay with TK-10 renal; 0.408 µM in the assay on PC-3 prostate; 0.585 µM with U251 CNS; 0.537 µM in the assay on CAKI-1 renal. Moreover, the TGI in the assay with OVCAR-3 ovarian is 0.0324 µM; in the assay on KM12 colon, 0.0965 µM; with RXF 393 renal, less than 0.0127 µM.
Consider `O=C(CSc1nc2sc3c(c2c(=O)n1-c1ccccc1)CCCCC3)N/N=C/c1ccc(F)cc1`, for which the GI50 in the assay on MOLT-4 leukemia is 9.09 µM; in the assay on NCI-H460 lung it was 1.12 µM; in the assay on TK-10 renal, 1.6 µM; in the assay on 786-0 renal, 5.49 µM; in the assay on PC-3 prostate, 4.91 µM; with U251 CNS, 1.93 µM. For the same molecule, the GI50 with CAKI-1 renal is 3.18 µM; with OVCAR-3 ovarian, 1.78 µM; with KM12 colon it was 6 µM; with RXF 393 renal, 2.39 µM. Besides, the TGI is greater than 100 µM in the assay on MOLT-4 leukemia; 2.98 µM in the assay with NCI-H460 lung; 4.16 µM in the assay on TK-10 renal; 18.8 µM with 786-0 renal; 26.8 µM in the assay on PC-3 prostate; 5.31 µM in the assay on U251 CNS. In addition, the TGI is 13.5 µM with CAKI-1 renal, 4.07 µM in the assay with OVCAR-3 ovarian, greater than 100 µM in the assay on KM12 colon and 7.18 µM with RXF 393 renal.
As for `Nc1nc(F)nc2c1ncn2C1OC(COP(=O)(O)O)C(O)C1O` (stereo not drawn), the TGI is 224 µM in the assay on MOLT-4 leukemia; 616 µM in the assay on NCI-H460 lung; 773 µM with TK-10 renal; 384 µM with 786-0 renal; 322 µM in the assay on PC-3 prostate; greater than 1250 µM in the assay with U251 CNS. For the same molecule, the TGI in the assay on CAKI-1 renal is greater than 68.4 µM; with OVCAR-3 ovarian it was 546 µM; with KM12 colon, 900 µM; in the assay on RXF 393 renal, 413 µM.
In the case of `O=C1C=CC(=O)N1c1ccc2c(c1)Cc1cc(NC(=O)C(F)(F)F)ccc1-2`, the TGI is greater than 100 µM in the assay with MOLT-4 leukemia; greater than 100 µM in the assay on NCI-H460 lung; 7.75 µM in the assay on TK-10 renal; 13 µM in the assay with 786-0 renal; 33.1 µM with PC-3 prostate; 34 µM in the assay with U251 CNS. Also, the TGI in the assay with CAKI-1 renal is 32.7 µM; with OVCAR-3 ovarian, 31.2 µM; in the assay on KM12 colon, 40.6 µM; with RXF 393 renal it was 23.7 µM.
Take `C[C@]12CC[C@@H]3c4ccc(OCC(=O)O)cc4CC[C@H]3[C@@H]1CCC2=O`: the TGI is 64.4 µM in the assay on MOLT-4 leukemia; greater than 100 µM in the assay with NCI-H460 lung; greater than 100 µM with TK-10 renal; greater than 100 µM with 786-0 renal; greater than 100 µM in the assay with PC-3 prostate; greater than 100 µM with U251 CNS. The TGI with CAKI-1 renal, in the assay with OVCAR-3 ovarian, in the assay with KM12 colon and with RXF 393 renal was greater than 100 µM each time.
